From US8927587B2, “Chemical compounds” (Pfizer Limited, priority 2012, dated 2015)

Molecular target: T1, hNav1.8 (Homo sapiens, UniProt Q9Y5Y9)
T1 construct: host or cells: HEK cells, stably transfected
Assay: hNav1.8 whole-cell patch-clamp electrophysiology (conventional or PatchXpress 7000) in stably transfected HEK cells
Type: cell-based
Conditions: estimated IC50 calculated from single point % inhibition; HEK cells expressing hNav1.8; 8 sec prepulse to V1/2, 20 msec step to 0 mV; average of replicates; read-out: Nav1.8 EIC50
Procedure, shortened: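 Whole-cell voltage clamp at 22-24 °C in HEK cells stably expressing hNav1.8, manually or on PatchXpress. Current evoked by 20 msec step to 0 mV after 8 s prepulse to each cell's inactivation V1/2; single-concentration % inhibition converted to estimated IC50, using only 20-80% inhibition values, averaged over replicates.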

T1 sequence (Q9Y5Y9 whole entry): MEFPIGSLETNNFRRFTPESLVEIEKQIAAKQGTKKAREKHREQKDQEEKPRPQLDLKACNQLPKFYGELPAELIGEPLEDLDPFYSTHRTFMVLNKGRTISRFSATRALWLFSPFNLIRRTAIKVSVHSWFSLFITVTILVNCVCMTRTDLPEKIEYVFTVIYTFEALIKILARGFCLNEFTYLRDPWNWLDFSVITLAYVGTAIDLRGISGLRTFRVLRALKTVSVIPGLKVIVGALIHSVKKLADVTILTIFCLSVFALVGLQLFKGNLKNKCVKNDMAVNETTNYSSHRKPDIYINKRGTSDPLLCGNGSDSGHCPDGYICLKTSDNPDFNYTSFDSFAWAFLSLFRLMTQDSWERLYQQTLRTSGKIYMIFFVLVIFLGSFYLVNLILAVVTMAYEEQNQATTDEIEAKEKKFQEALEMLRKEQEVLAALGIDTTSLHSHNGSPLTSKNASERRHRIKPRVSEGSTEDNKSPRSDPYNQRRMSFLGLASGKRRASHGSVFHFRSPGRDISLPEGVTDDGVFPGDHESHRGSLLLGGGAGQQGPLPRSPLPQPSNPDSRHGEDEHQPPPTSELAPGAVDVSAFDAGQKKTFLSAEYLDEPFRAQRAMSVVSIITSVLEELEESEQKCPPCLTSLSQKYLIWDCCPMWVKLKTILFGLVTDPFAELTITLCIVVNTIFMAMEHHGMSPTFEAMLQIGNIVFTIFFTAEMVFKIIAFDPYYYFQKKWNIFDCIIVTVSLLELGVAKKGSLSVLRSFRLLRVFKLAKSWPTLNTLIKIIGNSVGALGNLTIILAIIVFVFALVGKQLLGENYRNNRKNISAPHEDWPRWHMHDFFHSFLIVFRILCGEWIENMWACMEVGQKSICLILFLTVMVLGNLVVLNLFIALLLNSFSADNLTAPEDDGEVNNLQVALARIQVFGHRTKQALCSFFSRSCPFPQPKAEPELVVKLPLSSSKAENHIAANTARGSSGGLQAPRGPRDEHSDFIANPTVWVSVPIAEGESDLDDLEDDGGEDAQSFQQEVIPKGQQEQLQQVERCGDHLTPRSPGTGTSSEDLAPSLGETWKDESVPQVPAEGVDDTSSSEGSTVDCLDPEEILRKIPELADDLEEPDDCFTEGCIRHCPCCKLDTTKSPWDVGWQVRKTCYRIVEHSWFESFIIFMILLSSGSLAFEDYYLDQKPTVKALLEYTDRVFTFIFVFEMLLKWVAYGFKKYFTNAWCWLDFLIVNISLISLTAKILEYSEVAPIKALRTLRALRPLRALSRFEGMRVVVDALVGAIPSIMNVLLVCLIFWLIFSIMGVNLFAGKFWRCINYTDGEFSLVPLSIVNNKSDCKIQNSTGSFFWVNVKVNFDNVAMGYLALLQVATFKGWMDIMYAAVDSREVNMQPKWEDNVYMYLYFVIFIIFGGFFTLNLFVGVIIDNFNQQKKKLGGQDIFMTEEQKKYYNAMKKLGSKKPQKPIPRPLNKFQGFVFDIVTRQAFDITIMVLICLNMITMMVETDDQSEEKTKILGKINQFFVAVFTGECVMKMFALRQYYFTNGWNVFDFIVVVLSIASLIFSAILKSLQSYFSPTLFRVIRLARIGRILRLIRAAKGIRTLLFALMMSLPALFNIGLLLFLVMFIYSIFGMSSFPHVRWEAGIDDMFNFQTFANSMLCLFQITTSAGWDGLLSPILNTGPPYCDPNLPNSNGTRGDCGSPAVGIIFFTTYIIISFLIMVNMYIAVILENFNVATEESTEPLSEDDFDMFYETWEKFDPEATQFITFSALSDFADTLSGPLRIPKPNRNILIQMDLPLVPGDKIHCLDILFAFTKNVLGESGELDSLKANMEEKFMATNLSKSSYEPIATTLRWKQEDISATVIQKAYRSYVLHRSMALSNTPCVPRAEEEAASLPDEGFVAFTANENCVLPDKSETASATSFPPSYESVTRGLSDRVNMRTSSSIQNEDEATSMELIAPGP

Point of comparison: COC(C)(C)C(N)c1nc2cc(-c3ccc(C#N)cc3)ccc2[nH]1 (stereo not shown) [Example 142, 4-[2-(1-Amino-2-methoxy-2-methylpropyl)-1H-benzimidazol-5-yl]benzonitrile], IC50 1840 nM. Against it:
- CC(C)(C)c1ccc2[nH]c([C@H]3CCN3)nc2c1 [Example 130, 2-[(2R)-Azetidin-2-yl]-5-tert-butyl-1H-benzimidazole] — within 1.5-fold, 1340 nM
- CC(C)(C)c1ccc2[nH]c([C@@H]3C[C@@H](F)CN3)nc2c1 [Example 131, 5-tert-Butyl-2-[(2S,4R)-4-fluoropyrrolidin-2-yl]-1H-benzimidazole] — 4.7-fold lower, 394 nM
- CC(C)(C)c1ccc2[nH]c([C@@H]3C[C@H](F)CN3)nc2c1 [Example 132, 5-tert-Butyl-2-[(2S,4S)-4-fluoropyrrolidin-2-yl]-1H-benzimidazole] — 9.6-fold lower, 191 nM
- CC(C)[C@@H](O)[C@H](N)c1nc2cc(C(C)(C)C)ccc2[nH]1 [Example 133, (1R,2R)-1-Amino-1-(5-tert-butyl-1H-benzimidazol-2-yl)-3-methylbutan-2-ol] — 8.1-fold lower, 228 nM
- CC(C)(C)c1ccc2[nH]c([C@H](N)CCO)nc2c1 [Example 134, (3R)-3-Amino-3-(5-tert-butyl-1H-benzimidazol-2-yl)propan-1-ol] — 5.2-fold lower, 355 nM
- CC(C)(C)c1ccc2[nH]c([C@H](N)CCCO)nc2c1 [Example 135, (4R)-4-Amino-4-(5-tert-butyl-1H-benzimidazol-2-yl)butan-1-ol] — 1.8-fold lower, 1000 nM
- CC(C)(C)c1ccc2[nH]c([C@H]3NCC[C@H]3O)nc2c1 [Example 136, (2R,3R)-2-(5-tert-Butyl-1H-benzimidazol-2-yl)pyrrolidin-3-ol] — 3.6-fold lower, 508 nM
- C[C@@H](O)[C@@H](N)c1nc2cc(-c3ccc(C#N)cc3)ccc2[nH]1 [Example 137, 4-{2-[(1S,2R)-1-Amino-2-hydroxypropyl]-1H-benzimidazol-5-yl}benzonitrile] — 2-fold lower, 915 nM
- C[C@H](O)[C@H](N)c1nc2cc(-c3ccc(C#N)cc3)ccc2[nH]1 [Example 138, 4-{2-[(1R,2S)-1-Amino-2-hydroxypropyl]-1H-benzimidazol-5-yl}benzonitrile] — 3.8-fold lower, 486 nM
- CC[C@@H](O)[C@H](N)c1nc2cc(C(C)(C)C)ccc2[nH]1 [Example 139, (1R,2R)-1-Amino-1-(5-tert-butyl-1H-benzimidazol-2-yl)butan-2-ol] — 42-fold lower, 43.5 nM
- CC(C)(C)c1ccc2[nH]c([C@@H](N)CCCO)nc2c1 [Example 140, (4S)-4-Amino-4(5-tert-butyl-1H-benzimidazol-2-yl)butan-1-ol] — 8.3-fold lower, 223 nM
- CC(C)(C)c1ccc2[nH]c([C@@H](N)C(C)(C)C(N)=O)nc2c1 [Example 141, (3S)-3-Amino-3-(5-tert-butyl-1H-benzimidazol-2-yl)-2,2-dimethylpropanamide] — 2.3-fold lower, 797 nM
- CC(C)(C)c1ccc2[nH]c([C@@H](N)COC(N)=O)nc2c1 [Example 143, (R)-2-Amino-2-(5-(tert-butyl)-1H-benzo[d]imidazol-2-yl)ethyl carbamate] — 22-fold lower, 85.2 nM
- CC[C@@H](C(N)=O)[C@H](N)c1nc2cc(C(C)(C)C)ccc2[nH]1 [Example 144, (R)-2-((S)-Amino-(6-(tert-butyl)-1H-benzo[d]imidazol-2-yl)methyl)butanamide] — 45-fold lower, 41.3 nM
- CO[C@H](C)[C@H](N)c1nc2cc(C3CCCC3)ccc2[nH]1 [Example 145, (1R,2R)-1-(5-Cyclopentyl-1H-benzo[d]imidazol-2-yl)-2-methoxypropan-1-amine] — 6.5-fold lower, 284 nM
- CCC[C@H](N)c1nc2cc(-c3ccc(C#N)c(F)c3)ccc2[nH]1 [Example 146, 4-{2-[(1S)-1-Aminobutyl]-1H-benzimidazol-5-yl}-2-fluorobenzonitrile] — 67-fold lower, 27.3 nM
- CCC[C@H](N)c1nc2cc(-c3ccc(C#N)cc3)ccc2[nH]1 [Example 147, 4-{2-[(1S)-1-Aminobutyl]-1H-benzimidazol-5-yl}benzonitrile] — 17-fold lower, 110 nM
- CC(C)c1ccc2[nH]c([C@H](N)[C@@H](C)O)nc2c1 [Example 148, (1S,2R)-1-Amino-1-[5-(propan-2-yl)-1H-benzimidazol-2-yl]propan-2-ol] — 1.8-fold lower, 1000 nM
- C[C@@H](C(=O)N(C)C)[C@H](N)c1nc2cc(C(C)(C)C)ccc2[nH]1 [Example 149, (2R,3S)-3-Amino-3-(5-tert-butyl-1H-benzimidazol-2-yl)-N,N,2-trimethylpropanamide] — 6.1-fold lower, 303 nM
- CC(N)(CO)c1nc2cc(-c3ccc(C#N)c(F)c3)ccc2[nH]1 (stereo not shown) [Example 150, 4-(2-(2-Amino-1-hydroxypropan-2-yl)-1H-benzo[d]imidazol-5-yl)-2-fluorobenzonitrile] — 14-fold lower, 134 nM
- C[C@H](OC(N)=O)[C@H](N)c1nc2cc(C34CC5CC(CC(C5)C3)C4)ccc2[nH]1 [Example 151, (1R,2S)-1-(5-((3R,5R,7R)-Adamantan-1-yl)-1H-benzo[d]imidazol-2-yl)-1-aminopropan-2-yl carbamate] — 41-fold lower, 45.2 nM
- NC(=O)C[C@H](N)c1nc2cc(C34CC5CC(CC(C5)C3)C4)ccc2[nH]1 [Example 152, (3S)-3-Amino-3-[5-(tricyclo[3.3.1.1^3,7]dec-1-yl)-1H-benzimidazol-2-yl]propanamide] — 18-fold lower, 101 nM
- COC[C@H](N)c1nc2cc(-c3ccc(C#N)cc3)ccc2[nH]1 [Example 153, 4-{2-[(1R)-1-Amino-2-methoxyethyl]-1H-benzimidazol-5-yl}benzonitrile] — 19-fold lower, 96.3 nM
- C[C@@H](O)[C@H](N)c1cn2cc(-c3ccc(C#N)cc3)ccc2n1 [Example 154, 4-{2-[(1R,2R)-1-Amino-2-hydroxypropyl]imidazo[1,2-a]pyridin-6-yl}benzonitrile] — 17-fold lower, 108 nM
- CC(C)(C)c1ccc2nc([C@@H](N)CO)cn2c1 [Example 155, (2R)-2-Amino-2-(6-tert-butylimidazo[1,2-a]pyridin-2-yl)ethanol] — 8.8-fold lower, 208 nM
- C[C@@H](C(N)=O)[C@H](N)c1cn2cc(-c3ccc(C#N)cc3)ccc2n1 [Example 156, (2R,3S)-3-Amino-3-[6-(4-cyanophenyl)imidazo[1,2-a]pyridin-2-yl]-2-methylpropanamide] — 34-fold lower, 54.6 nM
- C[C@@H](C(N)=O)[C@H](N)c1cn2cc(C(C)(C)C)ccc2n1 [Example 157, (2R,3S)-3-Amino-3-(6-tert-butylimidazo[1,2-a]pyridin-2-yl)-2-methylpropanamide] — 41-fold lower, 44.5 nM
